“Also recorded” adds a separate entry of the source. Peptide text beside a SMILES is read from it. * marks the point of attachment. X1 = CN(C)c1ccc2c(c1)Oc1cc(N(C)C)ccc1C21OC(=O)c2cc(N3C(=O)CC(*)C3=O)ccc21
Assays:
[1] = molecular target: T1, GFP-RIIα (Mus musculus, UniProt P12367); assay: Co-localization with mitochondria-targeted Flag-tagged AKB domain constructs in 10T(1/2) cells (Example 10); type: cell-based; conditions: mutations of Table 7 in AKB domain of C-terminal 156 residues of mouse D-AKAP2, mitochondria-targeted
T1 construct: Full-length bovine RIα and mouse RIIα were fused with green fluorescent protein (GFP) by subcloning into pEGFPN1; expressed in transfected cells; host or cells: 10T(1/2) cells
T1 sequence (P12367 whole entry, the tested form may be a part): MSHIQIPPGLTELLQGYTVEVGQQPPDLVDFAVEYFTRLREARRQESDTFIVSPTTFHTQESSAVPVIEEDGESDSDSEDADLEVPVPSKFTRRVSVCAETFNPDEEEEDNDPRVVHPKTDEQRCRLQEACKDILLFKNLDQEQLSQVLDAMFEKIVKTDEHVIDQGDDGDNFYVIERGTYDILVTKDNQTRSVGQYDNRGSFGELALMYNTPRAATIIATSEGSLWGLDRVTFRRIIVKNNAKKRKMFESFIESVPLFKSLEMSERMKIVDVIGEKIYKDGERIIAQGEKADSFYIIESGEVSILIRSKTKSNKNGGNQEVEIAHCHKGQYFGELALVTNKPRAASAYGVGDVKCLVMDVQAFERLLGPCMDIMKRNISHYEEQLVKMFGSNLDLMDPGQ
Protocol: (§1) To test the ability of the mutations set forth in Table 7 [AKB(dual), AKB(RI), AKB(RII) and AKB(null)] to co-localize with selected PKA isoforms in cells, a flag-tagged AKB domain construct targeted to the mitochondria was prepared using the AKB domain and a mitochondria targeting sequence from D-AKAP1 as set forth in Example 3. The respective mutations were then incorporated into the AKB domain of D-AKAP2 to test for selectivity in the cell. The targeting constructs of the AKB domain were made by fusing the C-terminal 156 residues of mouse D-AKAP2 with the N-terminal mitochondrial-targeting domain of D-AKAP1 (residues 1-30 of D-AKAP1a). After adding a flag tag to the C-terminus, the constructs were sub-cloned into the pCI vector (Promega, Madison, Wis.). The mutations of the AKB domain corresponding to those set forth in Table 7 herein were made with the QuickChange mutagenesis method (Makarova et al. (2000) Biotechniques, 29:970-972). Full-length bovine RIα and mouse RIIα were fused with green fluorescent protein (GFP) by subcloning into pEGFPN1 (Clontech, Palo Alto, Calif.). Equal amounts of the targeting constructs and either GFP-RIα or GFP-RIIα constructs were co-transfected into 10T(1/2) cells using Lipofectamin (Invitrogen, Carlsbad, Calif.). The AKB domain was detected by immuno-staining with monoclonal antibodies against the Flag-tag (Kodak, Rochester, N.Y.) followed by a rhodamine-conjugated secondary antibody (Jackson Lab, Bar Harbor, Me.). The cells were imaged using a radiance confocal microscope (BioRad, Hercules, Calif.).

[2] = molecular target: T2, full-length RIIα (Mus musculus, UniProt P12367); assay: Fluorescence anisotropy binding assay (Example 9); design: species or system murine; conditions: compared with the unsubstituted peptide
T2 construct: Full-length murine RIIα was expressed in E. coli BL21 (DE3); made in house; host or cells: E. coli BL21 (DE3)
T2 sequence (P12367 whole entry): as the sequence (P12367 whole entry, the tested form may be a part) above
Protocol: (§2) Each peptide was fluorescently labeled using a 25 mM solution of tetramethylrhodamine-5-maleimide (catalog number T-6027; Molecular Probes, Eugene, Oreg.) dissolved in DMSO. The peptides were labeled by incubating with a three-fold molar excess of the label for 16 hr at 4° C. in 20 mM Tris, pH 7.0 and 1 mM tris-(2-carboxyethyl) phosphine, hydrochloride (TCEP) (non-thiol reducing agent, Molecular Probes). The sample was quenched with 1 mM, β-mercaptoethanol to bind to any unreacted maleimide and diluted with 0.1% TFA for purification by HPLC. The labeled peptides were resolved using a C18 column with a water/acetonitrile gradient containing 0.1% TFA. The concentration of each peptide was determined by absorbance at 541 nm after diluting into 100% methanol and using an extinction coefficient of 91,000 M^−1 cm^−1 for absorbance of the rhodamine label at 541 nm (Molecular Probes Catalog). The peptides were stored at 4° C. in 50% acetonitrile.
(§3) Full-length murine RIIα was expressed in E. coli BL21 (DE3). Full-length bovine RIα was expressed in E. coli 222. The proteins were purified as previously described using a cAMP affinity resin (Hamuro et al. (2002) J. Mol. Biol., 321:703). The protein concentrations were determined using the following extinction coefficients at 280 nm, which were calculated using a standard concentration of protein calibrated using quantitative amino acid analysis: RIα 52,603 M^−1 cm^−1 and RIIα 62,456 M^−1 cm^−1. The proteins were stored at 4° C. in 50 mM MES pH 5.8, 50 mM NaCl, 2 mM EDTA, 2 mM EGTA, 2 mM DTT.
(§4) Binding of each fluorescently labeled peptide to the regulatory subunits was monitored using fluorescence anisotropy. RIα and RIIα were serially diluted beginning at 1 μM and 0.1 μM, respectively, into 10 mM HEPES pH 7.4, 0.15 M NaCl, 3 mM EDTA, 0.005% Surfactant P20 (Biacore) containing either 10 nM or 1 nM of fluorescently labeled peptide for RIα and RIIα, respectively. The samples were equilibrated for at least 1 hour at room temperature and fluorescence anisotropy monitored using a Fluoromax-2 (Jobin Yvon Horiba, SPEX Division, Edison, N.J.) equipped with Glan-Thompson polarizers. The rhodamine-labeled peptide was excited at 541 nm (5-10 nm bandpass) and emission monitored at 575 nm (5-10 nm bandpass). The anisotropy was calculated directly with the Fluoromax software using the following equation: r=(IVV−G*IVH)/(IVV+2G*IVH) (1) where r is the steady state anisotropy, IVV is the fluorescence intensity with the excitation and emission polarizers oriented in the vertical position (0° from normal), IVH is the fluorescence intensity with the excitation polarizer in the vertical position and the emission polarizer oriented in the horizontal position (90°) relative to the excitation polarizer, G is the monochromator grating factor which is equal to (IHV/IHH), with the first subscript indicating the position of the excitation polarizer and the second subscript indicating position of the emission polarizer. Three separate binding experiments were averaged and fit to a 1:1 binding model using the non-linear regression application in GraphPad Prism version 3.00 (GraphPad Software, San Diego, Calif.).

[3] = molecular target: T3, GFP-RIα (Bos taurus, UniProt P00514); assay: Co-localization with mitochondria-targeted Flag-tagged AKB domain constructs in 10T(1/2) cells (Example 10); type: cell-based, bovine; conditions: mutations of Table 7 in AKB domain of C-terminal 156 residues of mouse D-AKAP2, mitochondria-targeted
T3 construct: Full-length bovine RIα and mouse RIIα were fused with green fluorescent protein (GFP) by subcloning into pEGFPN1; expressed in transfected cells; host or cells: 10T(1/2) cells
T3 sequence (P00514 whole entry, the tested form may be a part): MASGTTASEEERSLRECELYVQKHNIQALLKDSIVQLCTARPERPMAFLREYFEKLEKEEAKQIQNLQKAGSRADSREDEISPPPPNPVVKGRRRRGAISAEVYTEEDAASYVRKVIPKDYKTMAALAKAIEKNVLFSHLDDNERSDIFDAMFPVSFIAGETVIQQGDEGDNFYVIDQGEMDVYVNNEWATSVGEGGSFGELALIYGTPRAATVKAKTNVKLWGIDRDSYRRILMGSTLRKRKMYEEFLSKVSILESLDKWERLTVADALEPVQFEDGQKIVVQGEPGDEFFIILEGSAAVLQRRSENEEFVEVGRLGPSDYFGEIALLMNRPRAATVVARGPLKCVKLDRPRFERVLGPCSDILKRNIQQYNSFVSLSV
Protocol: as §1

[4] = molecular target: T4, full-length RIα (Bos taurus, UniProt P00514); assay: Fluorescence anisotropy binding assay (Example 9); design: species or system bovine; conditions: compared with the unsubstituted peptide
T4 construct: Full-length bovine RIα was expressed in E. coli 222; made in house; host or cells: E. coli 222
T4 sequence (P00514 whole entry): as the sequence (P00514 whole entry, the tested form may be a part) above
Protocol: as §2, §3, §4

binding to RIIα, in words [2] | binding to RIα, in words [4] | SMILES | recruitment of GFP-RIIα to the mitochondria [1] | recruitment of GFP-RIα to the mitochondria [3] | binding to RIIα, in words ([2]; listed as SEQ ID NO:103) | binding to RIα, in words ([4]; listed as SEQ ID NO:103)
could not be detected | bound very poorly | CC[C@H](C)[C@H](NC(=O)[C@H](CCCCN)NC(=O)[C@H](Cc1c[nH]c2ccccc12)NC(=O)[C@H](C)NC(=O)[C@H](CC(C)C)NC(=O)[C@H](CCC(=O)O)NC(=O)[C@H](CCC(=O)O)NC(=O)[C@H](CCC(N)=O)NC(=O)[C@H](C)NC(=O)[C@H](CCC(=O)O)NC(=O)[C@H](CC(=O)O)NC(=O)[C@@H](NC(=O)[C@H](CC(N)=O)NC(=O)CNC(=O)[C@H](CCC(N)=O)NC(=O)[C@@H](N)C(C)C)[C@@H](C)O)C(=O)N[C@@H](CCC(=O)O)C(=O)N[C@@H](CCCCN)C(=O)N[C@@H](CCSC)C(=O)N[C@H](C(=O)N[C@@H](Cc1c[nH]c2ccccc12)C(=O)N[C@@H](CO)C(=O)N[C@@H](CC(=O)O)C(=O)N[C@H](C(=O)N[C@@H](CCSC)C(=O)N[C@@H](CCC(N)=O)C(=O)N[C@@H](CCC(N)=O)C(=O)N[C@@H](CSC1CC(=O)N(c2ccc3c(c2)C(=O)OC32c3ccc(N(C)C)cc3Oc3cc(N(C)C)ccc32)C1=O)C(N)=O)C(C)C)[C@@H](C)CC (stereo partly shown) [AKB (null)] (H-VQGNTDEAQEELAWKIEKMIWSDVMQQC(X1)-NH2; N-terminus assumed) | could not co-localize either GFP-RIα or RIIα | could not co-localize either GFP-RIα or RIIα |  | 
did not affect binding to RIIα | dramatically affected binding to RIα | CC[C@H](C)[C@H](NC(=O)[C@H](CCCCN)NC(=O)[C@H](Cc1c[nH]c2ccccc12)NC(=O)[C@H](CC(C)C)NC(=O)[C@H](CC(C)C)NC(=O)[C@H](CCC(=O)O)NC(=O)[C@H](CCC(=O)O)NC(=O)[C@H](CCC(N)=O)NC(=O)[C@H](C)NC(=O)[C@H](CCC(=O)O)NC(=O)[C@H](CC(=O)O)NC(=O)[C@@H](NC(=O)[C@H](CC(N)=O)NC(=O)CNC(=O)[C@H](CCC(N)=O)NC(=O)[C@@H](N)C(C)C)[C@@H](C)O)C(=O)N[C@@H](C)C(=O)N[C@@H](CCCCN)C(=O)N[C@@H](CCSC)C(=O)N[C@H](C(=O)N[C@H](C(=O)N[C@@H](CO)C(=O)N[C@@H](CC(=O)O)C(=O)N[C@H](C(=O)N[C@@H](CCSC)C(=O)N[C@@H](CCC(N)=O)C(=O)N[C@@H](CCC(N)=O)C(=O)N[C@@H](CSC1CC(=O)N(c2ccc3c(c2)C(=O)OC32c3ccc(N(C)C)cc3Oc3cc(N(C)C)ccc32)C1=O)C(N)=O)C(C)C)C(C)C)[C@@H](C)CC (stereo partly shown) [AKB (RII)] (H-VQGNTDEAQEELLWKIAKMIVSDVMQQC(X1)-NH2; N-terminus assumed) | recruited RII to the mitochondria | incapable of recruiting GFP-RI |  | 
 |  | CC[C@H](C)[C@H](NC(=O)[C@H](CCCCN)NC(=O)[C@H](Cc1c[nH]c2ccccc12)NC(=O)[C@H](C)NC(=O)[C@H](CC(C)C)NC(=O)[C@H](CCC(=O)O)NC(=O)[C@H](CCC(=O)O)NC(=O)[C@H](CCC(N)=O)NC(=O)[C@H](C)NC(=O)[C@H](CCC(=O)O)NC(=O)[C@H](CC(=O)O)NC(=O)[C@@H](NC(=O)[C@H](CC(N)=O)NC(=O)CNC(=O)[C@H](CCC(N)=O)NC(=O)[C@@H](N)C(C)C)[C@@H](C)O)C(=O)N[C@@H](C)C(=O)N[C@@H](CCCCN)C(=O)N[C@@H](CCSC)C(=O)N[C@H](C(=O)N[C@H](C(=O)N[C@@H](CO)C(=O)N[C@@H](CC(=O)O)C(=O)N[C@H](C(=O)N[C@@H](CCSC)C(=O)N[C@@H](CCC(N)=O)C(=O)N[C@@H](CCC(N)=O)C(=O)N[C@@H](CSC1CC(=O)N(c2ccc3c(c2)C(=O)OC32c3ccc(N(C)C)cc3Oc3cc(N(C)C)ccc32)C1=O)C(N)=O)C(C)C)C(C)C)[C@@H](C)CC (stereo partly shown) [AKB (dual)] (H-VQGNTDEAQEELAWKIAKMIVSDVMQQC(X1)-NH2; N-terminus assumed) | able to recruit both GFP-RIα and GFP-RIIα to the mitochondria | able to recruit both GFP-RIα and GFP-RIIα to the mitochondria |  | 

SMILES | binding to RIIα, in words [2] | binding to RIα, in words [4] | recruitment of GFP-RIIα to the mitochondria [1] | recruitment of GFP-RIα to the mitochondria [3] | binding to RIIα, in words ([2]; listed as SEQ ID NO:103) | binding to RIα, in words ([4]; listed as SEQ ID NO:103)
CC[C@H](C)[C@H](NC(=O)[C@H](CCCCN)NC(=O)[C@H](Cc1c[nH]c2ccccc12)NC(=O)[C@H](C)NC(=O)[C@H](CC(C)C)NC(=O)[C@H](CCC(=O)O)NC(=O)[C@H](CCC(=O)O)NC(=O)[C@@H](N)Cc1ccccc1)C(=O)N[C@@H](C)C(=O)N[C@@H](CCCCN)C(=O)N[C@@H](CCSC)C(=O)N[C@H](C(=O)N[C@@H](Cc1c[nH]c2ccccc12)C(=O)N[C@@H](CO)C(=O)N[C@@H](CC(=O)O)C(=O)N[C@H](C(=O)N[C@@H](Cc1ccccc1)C(=O)N[C@@H](CCC(N)=O)C(=O)N[C@@H](CCC(N)=O)C(=O)N[C@@H](CSC1CC(=O)N(c2ccc3c(c2)C(=O)OC32c3ccc(N(C)C)cc3Oc3cc(N(C)C)ccc32)C1=O)C(N)=O)C(C)C)[C@@H](C)CC (stereo partly shown) [PV-38] (H-FEELAWKIAKMIWSDVFQQC(X1)-NH2; N-terminus assumed) | substantially no binding; also recorded: further disrupting RIIα binding | dramatically enhanced binding to RIα | GFP-RII was not localized | only localized GFP-RI to the mitochondria | considerable reduction in affinity to RIIα | enhanced binding to RIα by a factor of ten
